{
  "source": "patent US9956187B2",
  "about": "(priority 2014, dated 2018)",
  "key": {"Alpha1A": {"molecular_target": "T1, Alpha1A (Homo sapiens, UniProt P35348)", "T1 construct": "expressed in transfected cells", "assay": "Primary radioligand binding screen", "procedure": "(§1) Evidence for interaction was based on the inhibition of the reference ligand-binding signal. […] Briefly, 50 μL aliquots of radioactive ligand (5 nM) were added to wells of a 96-well plate, which contained 25 μL of the reference or test ligands. We employed transfected cell lines expressing mainly human (unless otherwise specified) recombinant receptors, monoamine transporters, or ion channels for crude membrane preparation. Detailed information about our membrane preparation is well known in the art and can be obtained from publicly available protocol online. Crude membrane fractions containing the receptors were resuspended in standard binding buffer and 50 μL aliquots added to each well. The reactions were incubated at room temperature for 1.5 hours to allow for radioligand binding equilibration. Bound radioactivity was harvested by rapid filtration through a 0.3% polyethyleneimine-treated, 96-well filter mats using a 96-well Filtermate harvester. The dried filters were treated with melted scintillant and a Microbeta scintillation counter was utilized to measure the radioactivity retained on the filter."}, "D5": {"molecular_target": "T2, D5 (Homo sapiens, UniProt P21918)", "T2 construct": "expressed in transfected cells", "assay": "Primary radioligand binding screen", "procedure": "as §1"}, "NET": {"molecular_target": "T3, NET (Homo sapiens, UniProt P23975)", "T3 construct": "expressed in transfected cells", "T3 sequence (P23975 whole entry)": "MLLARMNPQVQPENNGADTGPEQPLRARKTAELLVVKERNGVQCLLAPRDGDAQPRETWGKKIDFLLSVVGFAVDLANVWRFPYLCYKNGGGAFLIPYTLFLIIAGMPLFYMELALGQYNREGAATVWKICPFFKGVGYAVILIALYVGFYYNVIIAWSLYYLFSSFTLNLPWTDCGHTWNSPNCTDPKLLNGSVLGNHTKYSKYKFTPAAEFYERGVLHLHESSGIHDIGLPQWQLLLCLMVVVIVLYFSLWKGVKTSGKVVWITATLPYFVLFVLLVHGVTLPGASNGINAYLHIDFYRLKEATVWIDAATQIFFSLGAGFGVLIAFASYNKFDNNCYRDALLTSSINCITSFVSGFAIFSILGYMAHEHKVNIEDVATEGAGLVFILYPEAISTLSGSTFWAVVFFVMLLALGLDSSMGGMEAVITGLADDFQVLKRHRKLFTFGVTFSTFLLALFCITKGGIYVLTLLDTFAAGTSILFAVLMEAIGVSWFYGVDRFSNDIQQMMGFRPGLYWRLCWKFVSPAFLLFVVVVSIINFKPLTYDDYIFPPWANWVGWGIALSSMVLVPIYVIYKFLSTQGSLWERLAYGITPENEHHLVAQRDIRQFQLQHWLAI", "assay": "Primary radioligand binding screen", "procedure": "as §1"}, "Sigma 2": {"molecular_target": "Sigma 2 (Rattus norvegicus, UniProt Q5U3Y7)", "sequence (Q5U3Y7 whole entry)": "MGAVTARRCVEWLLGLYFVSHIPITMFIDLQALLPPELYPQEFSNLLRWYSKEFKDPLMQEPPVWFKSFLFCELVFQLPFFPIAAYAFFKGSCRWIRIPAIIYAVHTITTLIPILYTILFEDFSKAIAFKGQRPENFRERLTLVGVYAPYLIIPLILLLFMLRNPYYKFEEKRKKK", "assay": "Primary radioligand binding screen", "procedure": "as §1"}, "Beta2": {"molecular_target": "T4, Beta2 (Homo sapiens, UniProt P07550)", "T4 construct": "expressed in transfected cells", "assay": "Primary radioligand binding screen", "procedure": "as §1"}, "D1": {"molecular_target": "T5, D1 (Homo sapiens, UniProt P21728)", "T5 construct": "expressed in transfected cells", "T5 sequence (P21728 whole entry)": "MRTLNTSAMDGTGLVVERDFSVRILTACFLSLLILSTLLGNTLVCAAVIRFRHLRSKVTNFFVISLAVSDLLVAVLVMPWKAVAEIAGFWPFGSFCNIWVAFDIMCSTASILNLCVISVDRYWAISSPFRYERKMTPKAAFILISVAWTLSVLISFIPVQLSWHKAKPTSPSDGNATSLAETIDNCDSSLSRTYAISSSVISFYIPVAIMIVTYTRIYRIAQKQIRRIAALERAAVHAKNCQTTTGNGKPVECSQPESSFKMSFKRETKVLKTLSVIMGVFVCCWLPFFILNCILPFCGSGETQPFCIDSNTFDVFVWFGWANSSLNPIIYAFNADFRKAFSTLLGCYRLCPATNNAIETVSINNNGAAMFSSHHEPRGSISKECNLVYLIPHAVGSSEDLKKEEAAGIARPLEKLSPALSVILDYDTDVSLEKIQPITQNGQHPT", "assay": "Primary radioligand binding screen", "procedure": "as §1"}, "Alpha2A": {"molecular_target": "T6, Alpha2A (Homo sapiens, UniProt P08913)", "T6 construct": "expressed in transfected cells", "assay": "Primary radioligand binding screen", "procedure": "as §1"}, "D2": {"molecular_target": "T7, D2 (Homo sapiens, UniProt P14416)", "T7 construct": "expressed in transfected cells", "assay": "Primary radioligand binding screen", "procedure": "as §1"}, "M1": {"molecular_target": "T8, M1 (Homo sapiens, UniProt P11229)", "T8 construct": "expressed in transfected cells", "T8 sequence (P11229 whole entry)": "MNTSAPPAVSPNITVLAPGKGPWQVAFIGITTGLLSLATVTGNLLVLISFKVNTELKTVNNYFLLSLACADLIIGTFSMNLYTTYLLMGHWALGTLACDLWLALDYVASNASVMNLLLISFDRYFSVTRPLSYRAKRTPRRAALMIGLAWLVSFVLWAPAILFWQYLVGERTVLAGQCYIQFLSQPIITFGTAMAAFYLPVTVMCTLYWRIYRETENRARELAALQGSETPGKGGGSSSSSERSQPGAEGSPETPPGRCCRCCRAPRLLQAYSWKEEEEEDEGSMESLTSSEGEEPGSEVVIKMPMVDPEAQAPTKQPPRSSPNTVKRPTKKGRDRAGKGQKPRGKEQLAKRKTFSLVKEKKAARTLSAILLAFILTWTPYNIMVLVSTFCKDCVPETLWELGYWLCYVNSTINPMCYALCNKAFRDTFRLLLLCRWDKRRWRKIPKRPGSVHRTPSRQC", "assay": "Primary radioligand binding screen", "procedure": "as §1"}, "5-hT5A": {"molecular_target": "T9, 5-hT5A (Homo sapiens, UniProt P47898)", "T9 construct": "expressed in transfected cells", "T9 sequence (P47898 whole entry)": "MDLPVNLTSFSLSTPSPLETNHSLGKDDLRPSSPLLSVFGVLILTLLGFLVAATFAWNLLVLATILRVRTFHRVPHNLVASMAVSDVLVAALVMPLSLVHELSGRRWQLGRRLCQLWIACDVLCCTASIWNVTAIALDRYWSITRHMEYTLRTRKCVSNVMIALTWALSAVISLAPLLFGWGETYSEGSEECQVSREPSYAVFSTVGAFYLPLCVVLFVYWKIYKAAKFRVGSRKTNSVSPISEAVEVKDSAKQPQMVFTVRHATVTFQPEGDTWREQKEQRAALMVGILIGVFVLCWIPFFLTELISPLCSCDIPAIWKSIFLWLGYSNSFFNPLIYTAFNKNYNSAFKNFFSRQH", "assay": "Primary radioligand binding screen", "procedure": "as §1"}, "Beta1": {"molecular_target": "T10, Beta1 (Homo sapiens, UniProt P08588)", "T10 construct": "expressed in transfected cells", "T10 sequence (P08588 whole entry)": "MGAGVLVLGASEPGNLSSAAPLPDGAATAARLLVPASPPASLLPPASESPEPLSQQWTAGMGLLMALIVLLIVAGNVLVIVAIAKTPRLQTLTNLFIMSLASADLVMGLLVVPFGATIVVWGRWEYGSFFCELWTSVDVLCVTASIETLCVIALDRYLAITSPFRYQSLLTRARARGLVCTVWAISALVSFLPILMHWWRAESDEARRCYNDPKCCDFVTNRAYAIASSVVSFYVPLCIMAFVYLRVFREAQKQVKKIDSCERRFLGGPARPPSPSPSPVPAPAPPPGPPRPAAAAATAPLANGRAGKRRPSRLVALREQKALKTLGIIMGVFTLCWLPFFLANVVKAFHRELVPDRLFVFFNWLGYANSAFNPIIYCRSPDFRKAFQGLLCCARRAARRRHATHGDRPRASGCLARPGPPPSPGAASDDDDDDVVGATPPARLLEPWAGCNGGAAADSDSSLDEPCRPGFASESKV", "assay": "Primary radioligand binding screen", "procedure": "as §1"}, "5-HT7": {"molecular_target": "T11, 5-HT7 (Homo sapiens, UniProt P34969)", "T11 construct": "expressed in transfected cells", "assay": "Primary radioligand binding screen", "procedure": "as §1"}, "D3": {"molecular_target": "T12, D3 (Homo sapiens, UniProt P35462)", "T12 construct": "expressed in transfected cells", "assay": "Primary radioligand binding screen", "procedure": "as §1"}, "SERT": {"molecular_target": "T13, SERT (Homo sapiens, UniProt P31645)", "T13 construct": "expressed in transfected cells", "assay": "Primary radioligand binding screen", "procedure": "as §1"}, "Beta3": {"molecular_target": "T14, Beta3 (Homo sapiens, UniProt P13945)", "T14 construct": "expressed in transfected cells", "assay": "Primary radioligand binding screen", "procedure": "as §1"}, "5-HT1D": {"molecular_target": "T15, 5-HT1D (Homo sapiens, UniProt P28221)", "T15 construct": "expressed in transfected cells", "assay": "Primary radioligand binding screen", "procedure": "as §1"}, "5-HT2A": {"molecular_target": "T16, 5-HT2A (Homo sapiens, UniProt P28223)", "T16 construct": "expressed in transfected cells", "assay": "Primary radioligand binding screen", "procedure": "as §1"}, "M4": {"molecular_target": "T17, M4 (Homo sapiens, UniProt P08173)", "T17 construct": "expressed in transfected cells", "T17 sequence (P08173 whole entry)": "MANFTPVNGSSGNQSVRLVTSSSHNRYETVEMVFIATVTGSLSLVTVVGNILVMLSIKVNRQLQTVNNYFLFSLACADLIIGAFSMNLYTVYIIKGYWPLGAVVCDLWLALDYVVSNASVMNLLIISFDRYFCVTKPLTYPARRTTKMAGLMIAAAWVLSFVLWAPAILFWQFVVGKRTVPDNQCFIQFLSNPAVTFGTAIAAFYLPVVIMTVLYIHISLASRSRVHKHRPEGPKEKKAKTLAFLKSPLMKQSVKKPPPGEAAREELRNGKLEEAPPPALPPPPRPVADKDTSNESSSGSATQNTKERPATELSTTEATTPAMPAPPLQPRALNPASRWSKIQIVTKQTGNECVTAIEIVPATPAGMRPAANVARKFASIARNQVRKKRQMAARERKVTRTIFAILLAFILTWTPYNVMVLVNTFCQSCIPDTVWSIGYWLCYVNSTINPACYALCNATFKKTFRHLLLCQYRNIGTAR", "assay": "Primary radioligand binding screen", "procedure": "as §1"}, "H2": {"molecular_target": "T18, H2 (Homo sapiens, UniProt P25021)", "T18 construct": "expressed in transfected cells", "assay": "Primary radioligand binding screen", "procedure": "as §1"}, "D4": {"molecular_target": "T19, D4 (Homo sapiens, UniProt P21917)", "T19 construct": "expressed in transfected cells", "assay": "Primary radioligand binding screen", "procedure": "as §1"}, "Alpha2C": {"molecular_target": "T20, Alpha2C (Homo sapiens, UniProt P18825)", "T20 construct": "expressed in transfected cells", "T20 sequence (P18825 whole entry)": "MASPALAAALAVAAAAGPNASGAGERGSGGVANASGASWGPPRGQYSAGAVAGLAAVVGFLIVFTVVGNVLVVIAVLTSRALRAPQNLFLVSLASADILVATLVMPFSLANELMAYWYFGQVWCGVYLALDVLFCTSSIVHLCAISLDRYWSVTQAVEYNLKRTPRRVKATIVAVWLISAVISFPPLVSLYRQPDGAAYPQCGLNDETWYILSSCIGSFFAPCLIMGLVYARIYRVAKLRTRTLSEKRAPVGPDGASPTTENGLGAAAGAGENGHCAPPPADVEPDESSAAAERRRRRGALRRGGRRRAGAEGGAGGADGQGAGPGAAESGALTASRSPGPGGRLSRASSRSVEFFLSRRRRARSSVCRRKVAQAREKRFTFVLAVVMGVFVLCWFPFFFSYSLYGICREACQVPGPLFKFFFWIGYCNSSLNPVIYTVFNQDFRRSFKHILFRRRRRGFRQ", "assay": "Primary radioligand binding screen", "procedure": "as §1"}, "DAT": {"molecular_target": "T21, DAT (Homo sapiens, UniProt Q01959)", "T21 construct": "expressed in transfected cells", "assay": "Primary radioligand binding screen", "procedure": "as §1"}, "5-HT1B": {"molecular_target": "T22, 5-HT1B (Homo sapiens, UniProt P28222)", "T22 construct": "expressed in transfected cells", "assay": "Primary radioligand binding screen", "procedure": "as §1"}, "M2": {"molecular_target": "T23, M2 (Homo sapiens, UniProt P08172)", "T23 construct": "expressed in transfected cells", "assay": "Primary radioligand binding screen", "procedure": "as §1"}, "5-HT2C": {"molecular_target": "T24, 5-HT2C (Homo sapiens, UniProt P28335)", "T24 construct": "expressed in transfected cells", "T24 sequence (P28335 33-458)": "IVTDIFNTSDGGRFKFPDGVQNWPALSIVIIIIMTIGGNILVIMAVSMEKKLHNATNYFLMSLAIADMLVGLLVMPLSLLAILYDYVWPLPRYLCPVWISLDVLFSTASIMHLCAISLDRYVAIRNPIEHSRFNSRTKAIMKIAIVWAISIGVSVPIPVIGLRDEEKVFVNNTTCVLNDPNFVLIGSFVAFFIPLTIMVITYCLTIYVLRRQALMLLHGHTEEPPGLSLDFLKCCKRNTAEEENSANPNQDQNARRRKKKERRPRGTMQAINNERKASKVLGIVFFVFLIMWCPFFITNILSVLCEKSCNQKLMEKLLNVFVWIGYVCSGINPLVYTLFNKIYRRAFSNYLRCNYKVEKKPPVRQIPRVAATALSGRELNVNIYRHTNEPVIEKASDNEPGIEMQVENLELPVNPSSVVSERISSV", "assay": "Primary radioligand binding screen", "procedure": "as §1"}, "M3": {"molecular_target": "T25, M3 (Homo sapiens, UniProt P20309)", "T25 construct": "expressed in transfected cells", "T25 sequence (P20309 whole entry)": "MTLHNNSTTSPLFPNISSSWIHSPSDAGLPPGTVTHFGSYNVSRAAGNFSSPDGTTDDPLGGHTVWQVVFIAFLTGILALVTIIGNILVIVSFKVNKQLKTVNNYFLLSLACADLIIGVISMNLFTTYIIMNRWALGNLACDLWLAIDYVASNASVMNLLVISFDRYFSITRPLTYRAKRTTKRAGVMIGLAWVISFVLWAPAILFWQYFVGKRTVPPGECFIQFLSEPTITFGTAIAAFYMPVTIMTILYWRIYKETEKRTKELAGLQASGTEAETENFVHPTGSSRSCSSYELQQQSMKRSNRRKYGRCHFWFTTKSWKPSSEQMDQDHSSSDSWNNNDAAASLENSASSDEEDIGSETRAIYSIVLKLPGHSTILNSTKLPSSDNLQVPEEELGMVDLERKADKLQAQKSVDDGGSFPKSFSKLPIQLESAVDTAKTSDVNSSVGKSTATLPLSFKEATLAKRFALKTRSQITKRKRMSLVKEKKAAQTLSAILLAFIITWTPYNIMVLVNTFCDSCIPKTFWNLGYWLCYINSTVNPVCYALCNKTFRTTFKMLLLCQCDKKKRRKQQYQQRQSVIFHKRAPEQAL", "assay": "Primary radioligand binding screen", "procedure": "as §1"}, "Alpha2B": {"molecular_target": "T26, Alpha2B (Homo sapiens, UniProt P18089)", "T26 construct": "expressed in transfected cells", "assay": "Primary radioligand binding screen", "procedure": "as §1"}, "5-HT3": {"molecular_target": "T27, 5-HT3 (Homo sapiens, UniProt P46098)", "T27 construct": "expressed in transfected cells", "assay": "Primary radioligand binding screen", "procedure": "as §1"}, "H3": {"molecular_target": "T28, H3 (Homo sapiens, UniProt Q9Y5N1)", "T28 construct": "expressed in transfected cells", "assay": "Primary radioligand binding screen", "procedure": "as §1"}, "kappa opioid receptor [1]": {"molecular_target": "T29, kappa opioid receptor (Homo sapiens, UniProt P41145)", "T29 sequence (P41145 whole entry)": "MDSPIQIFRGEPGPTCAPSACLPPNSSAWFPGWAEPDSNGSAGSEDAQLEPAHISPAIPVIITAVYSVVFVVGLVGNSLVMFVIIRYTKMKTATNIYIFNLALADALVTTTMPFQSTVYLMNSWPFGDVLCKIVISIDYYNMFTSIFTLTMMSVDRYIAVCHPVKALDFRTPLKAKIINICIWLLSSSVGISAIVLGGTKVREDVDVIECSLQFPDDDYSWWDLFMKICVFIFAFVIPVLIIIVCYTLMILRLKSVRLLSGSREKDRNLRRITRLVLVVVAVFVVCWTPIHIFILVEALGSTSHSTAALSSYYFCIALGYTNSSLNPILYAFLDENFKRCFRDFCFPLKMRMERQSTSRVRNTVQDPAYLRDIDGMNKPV", "assay_type": "binding", "design": "expressed in transfected cells", "conditions": "mean±SE; read-out: Ki KOR", "procedure": "The secondary binding assay was performed only when the inhibition in the primary screen was over 50%. A secondary binding assay was utilized to determine the binding affinity for the identified receptor.\n50 μL of a crude membrane fraction of cells expressing the respective receptors were applied to each well. Reaction incubation, harvesting and radioactivity measurement from the primary assay were repeated. Affinity is expressed as pKi (−log Ki)."}, "kappa opioid receptor [2]": {"molecular_target": "T29, kappa opioid receptor", "assay_type": "biochemical", "design": "purchased Millipore (Billerica, Mass.); host or cells: Chem-5 mammalian cell line", "conditions": "ligand alone", "text": "Membrane preparations of recombinant human kappa opioid receptor expressed in the mammalian cell line Chem-5 were obtained from Millipore (Billerica, Mass.). The effects of specific kappa opioid receptor ligands on the activation of the recombinant receptor were investigated by measuring G protein activation in vitro.\nThe assay reports the initial rates of activation of heterotrimeric G proteins (Gαii1β1γ2) on an agonist-bound receptor by measuring the accumulation of [^35S]-GTPγS (non-hydrolyzable analog of GTP) bound to the activated Gαi1 subunit. […] The G protein activation assay was conducted as follows (final concentrations in 50 μL reaction mixture are given in parentheses): the membrane sample was diluted into ice-cold 10 mM 3-(N-morpholino)propanesulfonic acid (MOPS) buffer to reach a protein concentration of 40 ng/μL. 10 μL of the diluted dispersion were dispensed into pre-siliconized glass tubes and mixed with the ligand in MOPS buffer containing 0.1% (w/v) BSA. Upon addition of a mixture of Gαi1 (100 nM) and Gβ1γ2 (500 nM), the tubes were incubated on ice for 30 minutes. The reaction was started by addition of MOPS buffer pH=7.5 (50 mM), EDTA (1 mM), MgCl2 (3 mM), GDP (4 μM), BSA (0.3% w/v), NaCl (100 mM), DTT (1 mM), and [^35S]-GTPγS (5 nM, 1250 Ci/mmol) followed by rapid transfer of the tubes to a water bath at 30° C. The incubation continued for 45 minutes. The reaction was terminated by addition of 2 mL of ice-cold stop solution, TNMg (20 mM Tris-HCl pH=8.0, 100 mM NaCl, and 25 mM MgCl2). The reaction mixture was rapidly filtered through nitrocellulose filters (Millipore). Filters were washed four times with 2 mL each of cold TNMg buffer, dried, placed in scintillation vials filled with ScintiSafe Econo F scintillation liquid (Fisher, Waltham, Mass.), and the radioactivity counted. Duplicate samples corresponding to every ligand concentration point were counted."}},
  "note": "Where a name gives a salt, the structure may show the parent alone.",
  "data": [
    {"smiles": "C[C@@]12CCCCC[C@@H](Cc3ccc(O)cc31)[C@@H]2N", "note": "[Dezocine, (−)-13β-amino-5,6,7,8,9,10,11,12-octahydro-5α-methyl-5,11-methanobenxocyclodecen-31-ol, hydrobromide]", "values": [
      {"measurement": "inhibition at 10 µM", "setting": "Alpha1A", "value": 4.9, "unit": "%"},
      {"measurement": "inhibition at 10 µM", "setting": "D5", "value": -6.3, "unit": "%"},
      {"measurement": "inhibition at 10 µM", "setting": "NET", "value": 86.4, "unit": "%"},
      {"measurement": "inhibition at 10 µM", "setting": "Sigma 2", "value": 6.3, "unit": "%"},
      {"measurement": "inhibition at 10 µM", "setting": "Beta2", "value": -4.5, "unit": "%"},
      {"measurement": "inhibition at 10 µM", "setting": "D1", "value": 11.5, "unit": "%"},
      {"measurement": "inhibition at 10 µM", "setting": "Alpha2A", "value": 40.9, "unit": "%"},
      {"measurement": "inhibition at 10 µM", "setting": "D2", "value": -3.8, "unit": "%"},
      {"measurement": "inhibition at 10 µM", "setting": "M1", "value": -6.8, "unit": "%"},
      {"measurement": "inhibition at 10 µM", "setting": "5-hT5A", "value": 3.4, "unit": "%"},
      {"measurement": "inhibition at 10 µM", "setting": "Beta1", "value": 10, "unit": "%"},
      {"measurement": "inhibition at 10 µM", "setting": "5-HT7", "value": 20.9, "unit": "%"},
      {"measurement": "inhibition at 10 µM", "setting": "D3", "value": -9.4, "unit": "%"},
      {"measurement": "inhibition at 10 µM", "setting": "SERT", "value": 97.7, "unit": "%"},
      {"measurement": "inhibition at 10 µM", "setting": "Beta3", "value": -15, "unit": "%"},
      {"measurement": "inhibition at 10 µM", "setting": "5-HT1D", "value": -0.4, "unit": "%"},
      {"measurement": "inhibition at 10 µM", "setting": "5-HT2A", "value": -10, "unit": "%"},
      {"measurement": "inhibition at 10 µM", "setting": "M4", "value": 2.5, "unit": "%"},
      {"measurement": "inhibition at 10 µM", "setting": "H2", "value": 33.6, "unit": "%"},
      {"measurement": "inhibition at 10 µM", "setting": "D4", "value": -5.1, "unit": "%"},
      {"measurement": "inhibition at 10 µM", "setting": "Alpha2C", "value": -7.9, "unit": "%"},
      {"measurement": "inhibition at 10 µM", "setting": "DAT", "value": 15.8, "unit": "%"},
      {"measurement": "inhibition at 10 µM", "setting": "5-HT1B", "value": -14.1, "unit": "%"},
      {"measurement": "inhibition at 10 µM", "setting": "M2", "value": 31.5, "unit": "%"},
      {"measurement": "inhibition at 10 µM", "setting": "5-HT2C", "value": 19.8, "unit": "%"},
      {"measurement": "inhibition at 10 µM", "setting": "M3", "value": -3.4, "unit": "%"},
      {"measurement": "inhibition at 10 µM", "setting": "Alpha2B", "value": 21.2, "unit": "%"},
      {"measurement": "inhibition at 10 µM", "setting": "5-HT3", "value": 11.8, "unit": "%"},
      {"measurement": "inhibition at 10 µM", "setting": "H3", "value": -1.6, "unit": "%"},
      {"measurement": "Ki", "setting": "kappa opioid receptor [1]", "value": "0.0319 ± 0.0019", "unit": "µM"},
      {"measurement": "G protein activation in the presence of kappa receptor", "setting": "kappa opioid receptor [2]", "value": "no significant G protein activation"}
    ]}
  ]
}
